From US8735439B2, “Chlorin e6-folic acid conjugate, preparation method thereof, and a pharmaceutical composition for the treatment of cancer comprising the same” (Diatech Korea Co., Ltd., priority 2009, dated 2014)

What was measured:
[1] = in benzol, standard to estimate γ; cited from earlier work
Hela cells [2] = experiment: Accumulation in Hela cells; format: cell-based; conditions: for concentration in Hela cells: 2×10^−5 M/l, 37° C.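 As to concentration in Hela cells: measured as suspension fluorescence intensity at excitation 405 nm and emission 665 nm.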
Procedure: The cellular accumulation and the targeted delivery of the photoactive compounds were investigated using Hela cells, which is one of the numerous tumor cell types that overexpress folate receptors.
Cells were cultivated for 3 days in medium 199, and transferred to Hank's solution/medium 199 (9/1). After 3 hours, the cell were collected by trypsin treatment from the substrate and placed in Hank's solution (10^5 ? /ml). To cell suspensions, chlorin e6 conjugates were added at a concentration of 2×10^−5 M/l, and incubated at 37° C. After 1, 5, 10, 15, and 24 hours, the samples were centrifuged, the pellet was washed with the cooled Hank's solution, and transferred to Hank's solution at a concentration being equal to that in the initial suspension.

Hela cells [3] = experiment: Competition assay with exogenous folic acid, uptake in Hela cells; format: cell-based; conditions: 4 μM/l folic acid, 24 hours
Description: Then, the sample was centrifuged, the supernatant was taken, and the pellet was rewashed with cooled Hank's solution. The obtained pellet was again transferred into Hank's solution.

HeLa tumor cells = experiment: Cytotoxicity (antiproliferative assay) in the absence of light exposure; format: cell-based; conditions: for number of HeLa cells: no light, 24 hours
Procedure: Cytotoxicity was analyzed, considering the intensity of proliferative processes in cells, photosensitizer concentration, and dose of optical power. For each point, 3 flasks with cell monolayer were used.
The monolayer culture of HeLa tumor cells was chosen and used as the cell.
The culture of HeLa tumor cells was grown in nutrient medium 199 or in nutrient medium containing hemohydrolyzate supplemented with 10% fetal bovine serum and […] of kanamycin. […]
Flasks with light-protective cover (dark cytotoxicity) were incubated at 37.5° C. for 1 hour. The cells were washed with Hank's solution 4 times. 2.0 ml of fresh nutrient medium were added, and the cells were irradiated at the temperature of melting ice for 5, 10, 15 or 20 mins by the light flux of a “METALAZ” laser medical device (wavelength: 627.8 nm, 578.2 or 510.6 nm) or “LD 680-2000” (wavelength: 670-690 nm), depending on the wavelength of maximum spectral absorption of the studied photosensitizer, at a dose of 40 J/cm^2. After 20-24 hours, the number of tumor cell was counted in Goriaev's chamber.

HeLa cell culture = experiment: Phototoxicity (photodynamic activity), 3.5 h incubation, 3.3 joule/cm^2; format: cell-based; parameters: number of HELA cells relative to the control: unit not given here; conditions: 3.5 hours incubation, photoexposure 3.3 joule/cm^2
Procedure: To examine the photodynamic effects of a photosensitizer on a HeLa cell culture, the photosensitizer solution was added to the nutrient media at a final concentration of 0.1, 0.5, 1.0, 5.0 or 10 mcg/ml on day 3 after transplanting the cell culture into flasks. The flasks were wrapped with a light protecting cover, and incubated at 37° C. for 3.5 hours. Then, the cells were washed with Hank's solution, and exposed on ice by a laser medical device “LD 680-2000” (wavelength: 670-690 nm) at a dose of 3.3 joule/cm^2. After 20-24 hours, the available cell monolayer was dispersed using a 0.02%-Versene solution, and the number of tumor cells was calculated in Goriaev's chamber. For each point, 3 flasks were used.

Hela cells [4] = experiment: Phototoxicity, 24 h incubation, 1.5-15 joule/cm^2; format: cell-based; conditions: 670-690 nm
Procedure: In other experiment, the cells were incubated with photosensitizers at 37° C. for 24 hours, and irradiated by exposed on ice by a laser medical device “LD 680-2000” (wavelength of 670-690 nm) in a dose of 1.5-15 joule/cm^2.

[5] = system: transporter of restored vectors (TRV); conditions: cited from earlier work; for Km: read-out: KM (affinity of the carrier TRV)

CCC1=C(CC)c2cc3[n-]c(cc4nc(cc5[n-]c(cc1n2)c(CC)c5CC)C(CC)=C4CC)c(CC)c3CC.[Pd+2] [Pd(II)-octa ethyl porphyrin]
γ of the standard [1]: one

C=Cc1c(C)c2cc3nc(c(CC(=O)O)c4[nH]c(cc5nc(cc1[nH]2)C(C)=C5CC)c(C)c4C(=O)O)C(CCC(=O)O)C3C (stereo not drawn) [chlorin e6, 13-carboxy-17-[2-carboxyethyl]-15-carboxymethyl-17,18-trans-dihydro-3-vinyl-8-ethyl-2,7,12,18-tetramethylporphyrin]
time in which the majority binds with cells (Hela cells [2]; Hela cells): ≤ 5 h
concentration in Hela cells (Hela cells [2]; incubation 1 hour): 0.86 relative units/10^4 cl.
concentration in Hela cells (Hela cells [2]; incubation 5 hours): 1.45 relative units/10^4 cl.
concentration in Hela cells (Hela cells [2]; incubation 10 hours): 1.72 relative units/10^4 cl.
concentration in Hela cells (Hela cells [2]; incubation 15 hours): 0.81 relative units/10^4 cl.
concentration in Hela cells (Hela cells [2]; incubation 24 hours): 0.40 relative units/10^4 cl.
effect of free folic acid on uptake in Hela cells (Hela cells [3]): no significant effect
cytotoxicity in the absence of light exposure (HeLa tumor cells; Hela cells, 24 hr incubation): no cytotoxicity
cell survival rate (HeLa tumor cells; Hela cells, 24 hr incubation, absence of light exposure): about 90%
number of HeLa cells (HeLa tumor cells; photosensitizer conc. 1 (μm)): 101.3 percentage of the control
number of HeLa cells (HeLa tumor cells; photosensitizer conc. 2.5 (μm)): 99.1 percentage of the control
number of HeLa cells (HeLa tumor cells; photosensitizer conc. 5.0 (μm)): 98.4 percentage of the control
number of HeLa cells (HeLa tumor cells; photosensitizer conc. 10.0 (μm)): 95.5 percentage of the control
number of HeLa cells (HeLa tumor cells; photosensitizer conc. 20.0 (μm)): 90.0 percentage of the control
number of HeLa cells (HeLa tumor cells; photosensitizer conc. 30.0 (μm)): 89.7 percentage of the control
number of HELA cells relative to the control (HeLa cell culture; 0.1 mcg/ml): 87.1
number of HELA cells relative to the control (HeLa cell culture; 0.5 mcg/ml): 83.6
number of HELA cells relative to the control (HeLa cell culture; 1.0 mcg/ml): 64.7
number of HELA cells relative to the control (HeLa cell culture; 5.0 mcg/ml): 19
number of HELA cells relative to the control (HeLa cell culture; 10.0 mcg/ml): 3.8
phototoxicity in survival test (Hela cells [4]): little phototoxicity

CN(Cc1cnc2nc(N)nc(N)c2n1)c1ccc(C(=O)N[C@@H](CCC(=O)O)C(=O)O)cc1 [methotrexate]
maximum rate of TRV transport ([5]; tumor cells): 1-12 nmol/min per cellular protein (g)
Km ([5]; tumor cells): 4 to 8 µM

Nc1nc(O)c2nc(CNc3ccc(C(=O)N[C@@H](CCC(=O)O)C(=O)O)cc3)cnc2n1 [folic acid, N-[4(2-Amino-4-hydroxypteridin-6-ylmethylamino)benzoyl]-L(+)-glutamic acid]
affinity of TRV-mediated transport [5]: about 200 μM
Km ([5]; tumor cells): 100 to 200 µM
